Patent publication US20240239811A1, “5-(5-(PIPERIDIN-4-YL)THIENO[3,2-C]PYRAZOL-2-YL]INDAZOLE DERIVATIVES AND RELATED COMPOUNDS AS MODULATORS FOR SPLICING NUCLEIC ACIDS AND FOR THE T” (REMIX THERAPEUTICS INC., priority 2020, published 2024)
pIC50: −log10 of the molar value.

Experiments:
Type in all cases: cell-based
HTT CJ mRNA = assay: Gene panel canonical junction qPCR assay, HTT; details: Table 6, decrease in CJ mRNA, read-out: HTT IC50 (decrease in CJ mRNA levels)
How it was run: (§1)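 A673 or K562 cells treated 24 h at 37° C with 11-point 3-fold dilutions, top 10 uM, DMSO ≤0.25%. CJ mRNA quantified by RT-qPCR with exon-junction-spanning probeset, ΔΔCt vs housekeeping gene (GAPDH, GUSB or PPIA) and DMSO control. IC50 from 4-parameter fit of percentage CJ decrease.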

HTT mRNA = assay: Splicing assay (RT-qPCR) monitoring HTT splice variants, canonical (CJ) and alternative (AJ) junction; details: 50% response, A673 or K562 cell line, 24 hours; for pIC50: decrease in CJ mRNA; for AC50: increase in AJ mRNA
How it was run: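 A673 or K562 cells were treated 24 h with an 11-point 3-fold dilution series (top 10 uM, ≤0.25% DMSO) at 37 °C. HTT canonical- and alternative-junction mRNAs were quantified in lysates by one-step RT-qPCR. Values were normalized to PPIA (A673) or GAPDH/GUSB (K562).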

SMN2 CJ mRNA = assay: Gene panel canonical junction qPCR assay, SMN2; details: Table 6, decrease in CJ mRNA, read-out: SMN2 IC50 (decrease in CJ mRNA levels)
How it was run: as §1

Target C CJ mRNA = assay: Gene panel canonical junction qPCR assay, Target C; details: Table 6, decrease in CJ mRNA, read-out: Target C IC50 (decrease in CJ mRNA levels)
How it was run: as §1

Structure (SMILES)	pIC50 (HTT CJ mRNA)	pIC50 (HTT mRNA)	AC50 (HTT mRNA)	pIC50 (SMN2 CJ mRNA)	pIC50 (Target C CJ mRNA)
Cn1cc2c(F)cc(-n3cc4cc(C5CCNCC5)sc4n3)cc2n1 [Compound 174]	< 5.00	< 5.00	> 10000 nM	5.00 to 6.00	< 5.00
c1n[nH]cc1-n1cc2sc(C3CCNCC3)cc2n1 [Compound 176]	< 5.00	< 5.00	> 10000 nM	< 5.00	< 5.00
Cn1cc2cc(-c3cc4cn(C5=CCOCC5)nc4s3)cc(F)c2n1 [Compound 177]	< 5.00	< 5.00	> 10000 nM	< 5.00	< 5.00
Cn1cc2cc(-n3cc4sc(C5CCNCC5)cc4n3)c(O)cc2n1 [Compound 178]	5.00 to 6.00	5.00 to 6.00	1000 to 10000 nM	5.00 to 6.00	5.00 to 6.00
c1n[nH]cc1-n1cc2cc(C3CCNCC3)sc2n1 [Compound 180]	< 5.00	< 5.00	> 10000 nM	< 5.00	< 5.00
Cc1cn2cc(-n3cc4sc(C5CCNCC5)cc4n3)nc2c(C)n1 [Compound 181]	5.00 to 6.00	5.00 to 6.00	1000 to 10000 nM	5.00 to 6.00	< 5.00
Cn1cc2cc(-c3cc4cn(C5CNC5)nc4s3)cc(F)c2n1 [Compound 184]	5.00 to 6.00	5.00 to 6.00	1000 to 10000 nM	6.00 to 7.00	< 5.00
Cn1cc2cc(-c3cc4cn([C@@H]5CCNC[C@H]5F)nc4s3)cc(F)c2n1 [Compound 187]	> 7.00	> 7.00	< 100 nM	> 7.00	6.00 to 7.00
Cc1cn2nc(-n3cc4sc(N5CC6(CN(C)C6)C5)cc4n3)cc(C)c2n1 [Compound 188, 2-(2-{2,8-dimethylimidazo[1,2-b]pyridazin-6-yl}thieno [3,2-c]pyrazol-5-yl)-6-methyl-2,6-diazaspiro [3.3] heptane]	6.00 to 7.00	6.00 to 7.00	1000 to 10000 nM	6.00 to 7.00	5.00 to 6.00
Cc1cn2nc(-n3cc4sc(N5CCC(NC(C)(C)C)C5)cc4n3)cc(C)c2n1 (stereo not shown) [Compound 189, N-tert-butyl-1-(2-{2,8-dimethylimidazo[1,2-b]pyridazin-6-yl}thieno[3,2-c]pyrazol-5-yl) pyrrolidin-3-amine]	< 5.00	< 5.00	> 10000 nM	5.00 to 6.00	< 5.00
CN(c1cc2sc(-c3ccc(-c4cn[nH]c4)cc3O)nc2s1)[C@@H]1C[C@H]2CC[C@@H](C1)N2 [Compound 191, 2-{5-[(1R,3R,5S)-8-azabicyclo[3.2.1]octan-3-yl(methyl)amino]thieno[2,3-d][1,3]-thiazol-2-yl}-5-(1H-pyrazol-4-yl)phenol]	< 5.00	< 5.00	> 10000 nM	< 5.00	< 5.00
C[C@@H]1C[C@H](c2cc3sc(-c4cc(F)c5nn(C)cc5c4)nc3s2)CCN1 [Compound 192, 7-fluoro-2-methyl-5-[5-(2-methylpiperidin-4-yl)thieno[2,3-d][1,3]thiazol-2-yl]indazole]	> 7.00	> 7.00	< 100 nM	> 7.00	> 7.00
C[C@@H]1C[C@@H](c2cc3sc(-c4cc(F)c5nn(C)cc5c4)nc3s2)CCN1 [Compound 193, 7-fluoro-2-methyl-5-[5-(2-methylpiperidin-4-yl)thieno[2,3-d][1,3]thiazol-2-yl]indazole]	> 7.00	> 7.00	< 100 nM	> 7.00	> 7.00
Cc1cn2nc(-c3nc4sc(C5=CCOCC5)cc4s3)cc(C)c2n1 [Compound 195, 6-[5-(3,6-dihydro-2H-pyran-4-yl)thieno[2,3-d][1,3]thiazol-2-yl]-2,8-dimethylimidazo[1,2-b]pyridazine]	6.00 to 7.00	6.00 to 7.00	100 to 1000 nM	6.00 to 7.00	6.00 to 7.00
